Assay results from paper PMC3669539, “Explant cultures of Rpe65^−/− mouse retina: a model to investigate cone opsin trafficking” (Molecular Vision, 2013).

Biological target: T1, mouse UV cone opsin (Mus musculus, UniProt P51491)
T1 construct: gene Opn1sw; pMT-2 vector, COS-1 cell membranes; transducin from bovine retina as read-out
T1 sequence (P51491 1-346): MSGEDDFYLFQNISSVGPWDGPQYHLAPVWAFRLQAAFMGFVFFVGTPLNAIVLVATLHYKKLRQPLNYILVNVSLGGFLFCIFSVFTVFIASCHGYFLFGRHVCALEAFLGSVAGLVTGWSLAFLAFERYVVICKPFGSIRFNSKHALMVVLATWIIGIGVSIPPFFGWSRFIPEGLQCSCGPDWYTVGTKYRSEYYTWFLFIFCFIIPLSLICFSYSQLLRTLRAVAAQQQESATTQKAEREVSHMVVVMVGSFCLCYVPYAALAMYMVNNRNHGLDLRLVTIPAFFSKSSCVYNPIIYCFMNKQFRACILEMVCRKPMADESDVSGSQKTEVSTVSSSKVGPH
Assay: transducin activation, radioactive GTPgammaS35 filter-binding assay
Format: biochemical
Settings: agonist, 20 or 200 µM; COS-1 membranes, bovine transducin 2.5 µM, 3 µM GTPgammaS, pH 6.4, 50 mM MgCl2, dim red light

## CC1=C(/C=C/C(C)=C/C=C/C(C)=C/C(=O)O)C(C)(C)CCC1 [all-trans retinoic acid]
  transducin activation, radioactive GTPgammaS35 filter-binding assay: RA, on the other hand, did increase mouse UV-opsin activity significantly
